Literature values as cited in patent US8592434B2, “Mucoadhesive buccal tablets for the treatment of orofacial herpes” (BioAlliance Pharma SA, priority 2009, dated 2013).

Settings: oral treatment, irrespective of the dosage and duration

| Headaches, treated patients | Structure (SMILES) |
| --- | --- |
| about 10% | CC(=O)OCC(CCn1cnc2cnc(N)nc21)COC(C)=O [famciclovir, diacetyl ester of 6-deoxy pencyclovir] |
| about 10% | CC(C)[C@H](N)C(=O)OCCOCn1cnc2c(=O)[nH]c(N)nc21 [valacyclovir, L-valine ester of acyclovir] |
